Experimental findings from patent US12403192B2, “Nanoemulsion compositions for preventing, suppressing or eliminating allergic and inflammatory disease” (priority 2014, dated 2025) are described below.

The subject of this assay is virus. Nature of the assay: Virus inactivation by BCTP components. Particulars: concentrations equivalent to 11% BCTP. The text has this: Individual components of nanoemulsions (e.g. in an immunogenic composition of the present invention) can function both to inactivate a pathogen as well as to contribute to the non-toxicity of the emulsions. […] Adding the oil phase to the detergent and solvent markedly reduces the toxicity of these agents in tissue culture at the same concentrations. […] Furthermore, when all the components of BCTP are combined in one composition but are not in a nanoemulsion structure, the mixture is not as effective at inactivating a pathogen as when the components are in a nanoemulsion structure.

In the case of TRITON-X100, the “ability to inactivate a virus” value is “less ability”.
